# Results published in patent publication US20240091230A1, “USE OF KRAS G12C INHIBITOR IN TREATING CANCERS” (AMGEN INC., priority 2021, published 2024).
# Test system: locally advanced or metastatic KRAS G12C mutant NSCLC
# Test: CodeBreaK 100 phase 2 portion, sotorasib monotherapy 960 mg QD (NCT03600883)
# Type: in vivo, human
# Settings: among 46 confirmed responders; cutoff Sep. 1, 2020
# Description: As discussed above, in phase 2 of the CodeBreaK 100 Trial (ClinicalTrials.gov identifier: NCT03600883) subjects with locally advanced or metastatic KRAS G12C mutant NSCLC were treated with the compound of Formula I as monotherapy at 960 mg QD.
# • Subject has provided informed consent prior to initiation of any study specific activities/procedures. • Men or women: 18 years of age or older. • Pathologically documented, locally-advanced or metastatic malignancy with KRAS G1 2C 10 mutation identified through molecular testing. For phase 2. the mutation was confirmed by central testing prior to enrollment. • Subjects must have progressed after receiving anti-PD-1 or anti-PD-L1 immunotherapy (unless contraindicated) AND/OR platinum-based combination chemotherapy AND targeted therapy if actionable oncogenic driver mutations were identified (i.e., EGFR, ALK, and ROS1). Subjects must have received no more than 3 prior lines of therapy. The following guidance was used: • Adjuvant therapy was counted as a line of therapy if the subject progressed on or within 6 months of adjuvant therapy administration. • In locally advanced and unresectable NSCLC, disease progression on or within six months of end of prior curatively intended multimodal therapy was counted as a line of therapy.
# • Active brain metastases from non-brain tumors.
# Samples for biomarker analysis, e.g., to evaluate potential biomarkers that may correlate with treatment response, were collected.
# For subjects with NSCLC an archival tumor sample (formalin fixed, paraffin embedded (FFPE) sample, collected within 5 years of enrollment) or pretreatment tumor biopsy (core needle or fine needle aspirates or excisional FFPE sample) was submitted prior to enrollment for central laboratory testing as well as subsequent exploratory biomarker analyses. […]
# KRAS G12C mutation testing was conducted using a therascreen® KRAS RGQ PCR Kit (Qiagen). […] The mutations detected are: G12A, G12D, G12R, G12C, G12S, G12V, and G13D.
# PD-L1 testing was conducted at the central labs using the Dako PharmDx 22C3 immunohistochemistry FDA-approved kit according to the instructions for use. […] All slides were reviewed and scored by a board-certified pathologist trained to score the PD-L1 IHC 22C3 pharrnDx assay.
# STK11, KEAP1 , and TP53 mutation testing was conducted using the Resolution Bioscience Resolution ctDx Lung™ assay that included 24 genes (including those actionable in NSCLC). […] STK11/KEAP1/TP53 co-mutation analysis determined mutational status from baseline tissue and/or plasma samples, and mutations include nonsense, missense, frameshift, or splice site mutations and insertion/deletions predicted to be loss-of-function, and excluded variants of unknown significance. […]
smiles,measurement,value
"C=CC(=O)N1CCN(c2nc(=O)n(-c3c(C)ccnc3C(C)C)c3nc(-c4c(O)cccc4F)c(F)cc23)[C@@H](C)C1 [sotorasib, 6-fluoro-7-(2-fluoro-6-hydroxyphenyl)-(1M)-1-[4-methyl-2-(propan-2-yl)pyridin-3--yl]-4-[(2S)-2-methyl-4-(prop-2-enoyl)piperazin-1-yl]pyrido[2,3-d]pyrimidin-2(1H)-one]",Duration of response (KM) - 25th percentile,6.8 months
same,Duration of response (KM) - 75th percentile,8.4 months
same,Duration of response (KM) - Max (+ for censored),8.4 months
same,Duration of response (KM) - Median,8.4 months
